Source: paper PMC7377239, “Cardiovascular Effects of Polychlorinated Biphenyls and Their Major Metabolites” (Environmental Health Perspectives, 2020)
Like-named read-outs stand apart in the source and are kept apart here.

Tests used:
HUVECs = test: Tube formation (tubulogenesis) assay in HUVECs, 18 h; type: cell-based, human; details: for minimal effective concentration / activity at 0.01 µM / activity at 0.1 µM / activity at 1 µM / activity at 10 µM / activity at 100 µM: Homo sapiens, HUVEC, 18 h; for activity at 1 µM: concentration 1.00 µM; for activity at 10 µM: concentration 10.00 µM
In short: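 HUVECs (passage 1–5) seeded on reduced-growth-factor basement membrane and exposed to compounds overnight at 37°C, 5% CO2, in 2× maintenance medium with 12.5 ng/mL VEGF; 0.5% DMSO vehicle. Calcein AM-stained tube networks imaged and analysed; vehicle-normalized readouts fit to four-parameter logistic, POD set at one SD of vehicle means.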

[1] = system: iCell endothelial cells (human iPSC-derived ECs); test: High-content imaging cytotoxicity in iCell endothelial cells, 24 h; type: cell-based; details: Homo sapiens, Endothelial cell; for viability at 0.1 µM / activity at 0.1 µM: 0.10 µM
In short: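 Human iPSC-derived endothelial cells (passages 1–5) were grown to a fibronectin-coated monolayer, then exposed 24 h at 37 °C with 0.5% DMSO vehicle. Staining was Hoechst 33342, MitoTracker Orange and calcein AM, read by high-content imaging. Point of departure came from 4-parameter logistic fits, with a 1-SD vehicle cutoff and 100 µM as the top concentration.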

[2] = tube formation mtl, read-out: POD huvec.mtl.18hr
[3] = tube formation tta, read-out: POD huvec.tta.18hr
[4] = tube formation ttl, read-out: POD huvec.ttl.18hr
[5] = HUVECs tube formation, 0.00 µM = 100.00, read-out: huvec.mtl.18hr
[6] = HUVECs tube formation, 0.00 µM = 100.00, read-out: huvec.tlps.18hr
[7] = HUVECs tube formation, 0.00 µM = 100.00, read-out: huvec.tta.18hr
[8] = HUVECs tube formation, 0.00 µM = 100.00, read-out: huvec.ttl.18hr
[9] = endothelial cells (endo), nma, 24 hr, read-out: POD endo.nma.24hr
[10] = iPSC-EC, 0.00 µM = 100.00, read-out: endo.cyto.24hr
[11] = iPSC-EC, 0.00 µM = 100.00, read-out: endo.mito.24hr
[12] = iPSC-EC, 0.00 µM = 100.00, read-out: endo.mitoint.24hr
[13] = iPSC-EC, 0.00 µM = 100.00, read-out: endo.nma.24hr
[14] = iPSC-EC, 0.00 µM = 100.00, read-out: endo.tc.24hrs

Clc1ccc(Cl)c(-c2c(Cl)ccc(Cl)c2Cl)c1Cl [(+)-PCB 136, 2,2′,3,3′,6,6′-hexachlorobiphenyl]
huvec.tta.18hr (HUVECs; HUVECs tube formation, concentration 0.01 µM, 0.00 µM = 100.00): 108.86
huvec.tlps.18hr (HUVECs; HUVECs tube formation, concentration 0.10 µM, 0.00 µM = 100.00): 71.77
huvec.tta.18hr (HUVECs; HUVECs tube formation, concentration 100.00 µM, 0.00 µM = 100.00): 92.04
minimal effective concentration (HUVECs; [2]): 13.4 µM
minimal effective concentration (HUVECs; [3]): 100 µM
minimal effective concentration (HUVECs; [4]): 100 µM
minimal effective concentration (HUVECs; HUVECs tube formation, MAX 100.00, read-out: huvec.mtl.18hr POD): 13.4 µM
minimal effective concentration (HUVECs; HUVECs tube formation, MAX 100.00, read-out: huvec.tta.18hr POD): 100 µM
minimal effective concentration (HUVECs; HUVECs tube formation, MAX 100.00, read-out: huvec.ttl.18hr POD): 100 µM
activity at 0.01 µM (HUVECs; HUVECs tube formation, concentration 0.01 µM, 0.00 µM = 100.00, read-out: huvec.mtl.18hr): 92.2%
activity at 0.01 µM (HUVECs; HUVECs tube formation, concentration 0.01 µM, 0.00 µM = 100.00, read-out: huvec.tlps.18hr): 82.7%
activity at 0.01 µM (HUVECs; HUVECs tube formation, concentration 0.01 µM, 0.00 µM = 100.00, read-out: huvec.ttl.18hr): 105%
activity at 0.1 µM (HUVECs; HUVECs tube formation, concentration 0.10 µM, 0.00 µM = 100.00, read-out: huvec.mtl.18hr): 93.1%
activity at 0.1 µM (HUVECs; HUVECs tube formation, concentration 0.10 µM, 0.00 µM = 100.00, read-out: huvec.tta.18hr): 107%
activity at 0.1 µM (HUVECs; HUVECs tube formation, concentration 0.10 µM, 0.00 µM = 100.00, read-out: huvec.ttl.18hr): 105%
activity at 1 µM (HUVECs; [5]): 96.3%
activity at 1 µM (HUVECs; [6]): 98.7%
activity at 1 µM (HUVECs; [7]): 102%
activity at 1 µM (HUVECs; [8]): 99.6%
activity at 10 µM (HUVECs; [5]): 92.5%
activity at 10 µM (HUVECs; [6]): 100%
activity at 10 µM (HUVECs; [7]): 112%
activity at 10 µM (HUVECs; [8]): 104%
activity at 100 µM (HUVECs; HUVECs tube formation, concentration 100.00 µM, 0.00 µM = 100.00, read-out: huvec.mtl.18hr): 64.5%
activity at 100 µM (HUVECs; HUVECs tube formation, concentration 100.00 µM, 0.00 µM = 100.00, read-out: huvec.tlps.18hr): 73.3%
activity at 100 µM (HUVECs; HUVECs tube formation, concentration 100.00 µM, 0.00 µM = 100.00, read-out: huvec.ttl.18hr): 83.9%
minimal effective concentration [1, 9]: 100 µM
viability at 0.01 µM [1, 10]: 103%
activity at 0.01 µM [1, 11]: 103%
activity at 0.01 µM [1, 12]: 96.4%
activity at 0.01 µM [1, 13]: 102%
viability at 0.01 µM [1, 14]: 103%
viability at 0.1 µM [1, 10]: 103%
activity at 0.1 µM [1, 11]: 104%
activity at 0.1 µM [1, 12]: 95.5%
activity at 0.1 µM [1, 13]: 98.7%
viability at 0.1 µM [1, 14]: 103%
viability at 1 µM [1, 10]: 103%
activity at 1 µM [1, 11]: 103%
activity at 1 µM [1, 12]: 92.5%
activity at 1 µM [1, 13]: 98.5%
viability at 1 µM [1, 14]: 103%
viability at 10 µM [1, 10]: 101%
activity at 10 µM [1, 11]: 102%
activity at 10 µM [1, 12]: 92.2%
activity at 10 µM [1, 13]: 99.4%
viability at 10 µM [1, 14]: 101%
viability at 100 µM [1, 10]: 46.7%
activity at 100 µM [1, 11]: 41.6%
activity at 100 µM [1, 12]: 51.5%
activity at 100 µM [1, 13]: 104%
viability at 100 µM [1, 14]: 50.8%
minimal effective concentration ([1]; iPSC-EC, 100.00 = highest concentration tested, read-out: endo.nma.24hr POD): 100 µM

COc1cc(Cl)c(-c2cc(Cl)ccc2Cl)cc1Cl [4-OMe-PCB 52, 4-methoxy-2,2′,5,5′-tetrachlorobiphenyl]
minimal effective concentration (HUVECs; [2]): 17.1 µM
minimal effective concentration (HUVECs; tube formation tlps, read-out: POD huvec.tlps.18hr): 14.2 µM
minimal effective concentration (HUVECs; [3]): 100 µM
minimal effective concentration (HUVECs; [4]): 100 µM
minimal effective concentration ([1]; endothelial cells (endo), cyto, 24 hr, read-out: POD endo.cyto.24hr): 43.5 µM
minimal effective concentration ([1]; endothelial cells (endo), mito, 24 hr, read-out: POD endo.mito.24hr): 43.5 µM
minimal effective concentration ([1]; endothelial cells (endo), mitoint, 24 hr, read-out: POD endo.mitoint.24hr): 100 µM
minimal effective concentration [1, 9]: 56.1 µM
minimal effective concentration ([1]; endothelial cells (endo), tc, 24 hr, read-out: POD endo.tc.24hr): 40.3 µM
